Assay: HCV replicon assay (luciferase) in ET (Huh-lucubineo-ET) cell line
Format: cell-based
Settings: Hepatitis C virus; tested at 5 μM; inhibition of replication relative to no compound control; ET replicon cells, luciferase 48-72 hours

Structure (SMILES) | inhibition at 5 µM [%]
Fc1ccccc1-c1nc2cnn(Cc3nc(-c4ccc(Cl)cc4)no3)cc-2n1 [Compound 113, 5-[3-(4-Chloro-phenyl)-[1,2,4]oxadiazol-5-ylmethyl]-2-(2-fluoro-phenyl)-5H-imidazo[4,5-d]pyridazine] | 24.9

Same assay, conditions: Hepatitis C virus; tested at 10 μM; inhibition of replication relative to no compound control; ET replicon cells, luciferase 48-72 hours; read-out: % inhition at 10 μM

Structure (SMILES) | inhibition at 10 µM [%]
Fc1ccccc1-c1nc2cnn(Cc3nc(-c4ccc(Cl)cc4)no3)cc-2n1 [Compound 113, 5-[3-(4-Chloro-phenyl)-[1,2,4]oxadiazol-5-ylmethyl]-2-(2-fluoro-phenyl)-5H-imidazo[4,5-d]pyridazine] | 41.7
N#Cc1ccc(-c2cc(Cn3cc4nc(-c5cccc(F)c5F)nc-4cn3)on2)cc1 [Compound 213, 4-{5-[2-(2,3-Difluoro-phenyl)-imidazo[4,5-d]pyridazin-5-ylmethyl]-isoxazol-3-yl}-benzonitrile] | 98.1
CCCCc1ccc(-c2cc(Cn3cc4nc(-c5ccccc5F)nc-4cn3)on2)cc1 [Compound 277, 5-[3-(4-Butyl-phenyl)-isoxazol-5-ylmethyl]-2-(2-fluoro-phenyl)-5H-imidazo[4,5-d]pyridazine] | 99.9
Oc1ccc(-c2cc(Cn3cc4nc(-c5cccc(F)c5F)nc-4cn3)on2)c(C(F)(F)F)c1 [Compound 340, 4-{5-[2-(2,3-Difluoro-phenyl)-imidazo[4,5-d]pyridazin-5-ylmethyl]-isoxazol-3-yl}-3-trifluoromethyl-phenol] | 0.116
Nc1nn(Cc2cc(-c3ccc(C(F)(F)F)cc3C(F)(F)F)no2)c(N)c2nc(-c3cccc(F)c3F)nc1-2 [Compound 237, 5-[3-(2,4-Bis-trifluoromethyl-phenyl)-isoxazol-5-ylmethyl]-2-(2,3-difluoro-phenyl)-5H-imidazo[4,5-d]pyridazine-4,7-diamine] | 1.73
Fc1cccc(-c2nc3cnn(Cc4cc(-c5ccc(OCc6ccncc6)cc5)no4)cc-3n2)c1F [Compound 148, 2-(2,3-Difluoro-phenyl)-5-{3-[4-(pyridin-4-ylmethoxy)-phenyl]-isoxazol-5-ylmethyl}-H-imidazo[4,5-d]pyridazine] | 100
CCCOc1ccc(-c2ccc(-c3cc(Cn4cc5nc(-c6cccc(F)c6F)nc-5cn4)on3)cc2)cc1 [Compound 269, 2-(2,3-Difluoro-phenyl)-5-[3-(4′-propoxy-biphenyl-4-yl)-isoxazol-5-ylmethyl]-5H-imidazo[4,5-d]pyridazine] | 36.6
Fc1cccc(-c2nc3cnn(Cc4cc(-c5ccc(I)cc5)no4)cc-3n2)c1F [Compound 306, 2-(2,3-Difluoro-phenyl)-5-[3-(4-iodo-phenyl)-isoxazol-5-ylmethyl]-5H-imidazo[4,5-d]pyridazine] | 99.9
CC(c1cc(-c2ccc(C(F)(F)F)cc2C(F)(F)F)no1)n1cc2nc(-c3cccc(F)c3F)nc-2cn1 (centres unmarked) [Compound 226, 5-{1-[3-(2,4-Bis-trifluoromethyl-phenyl)-isoxazol-5-yl]-ethyl}-2-(2,3-difluoro-phenyl)-5H-imidazo[4,5-d]pyridazine] | 99.7
Fc1cccc(-c2nc3cnn(Cc4noc(-c5ccc(C(F)(F)F)cc5)n4)cc-3n2)c1F [Compound 230, 2-(2,3-Difluoro-phenyl)-5-[5-(4-trifluoromethyl-phenyl)-[1,2,4]oxadiazol-3-ylmethyl]-5H-imidazo[4,5-d]pyridazine] | 35.8
Cc1cc(C#Cc2ccc(-c3cc(Cn4cc5nc(-c6cccc(F)c6F)nc-5cn4)on3)cc2)cc(C)n1 [Compound 310, 2-(2,3-Difluoro-phenyl)-5-{3-[4-(2,6-dimethyl-pyridin-4-ylethynyl)-phenyl]-isoxazol-5-ylmethyl}-5H-imidazo[4,5-d]pyridazine] | 99.4
Fc1cccc(-c2nc3cnn(Cc4cc(-c5ccc(OCc6cccnc6)cc5)no4)cc-3n2)c1F [Compound 179, 2-(2,3-Difluoro-phenyl)-5-{3-[4-(pyridin-3-ylmethoxy)-phenyl]-isoxazol-5-ylmethyl}-5H-imidazo[4,5-d]pyridazine] | 99.9
Fc1cccc(-c2nc3cnn(Cc4cc(-c5ccc(OCc6ccccn6)cc5)no4)cc-3n2)c1F [Compound 172, 2-(2,3-Difluoro-phenyl)-5-{3-[4-(pyridin-2-ylmethoxy)-phenyl]-isoxazol-5-ylmethyl}-5H-imidazo[4,5-d]pyridazine] | 95.4

Reference: US20090197880A1 (Genelabs Technologies, Inc., priority 2007, published 2009)
